Data as given in patent publication US11066634B2, “Culture device and methods for enumerating mold colonies” (3M INNOVATIVE PROPERTIES COMPANY, priority 2013, dated 2021).
Like-named read-outs stand apart in the source and are kept apart here.

What was measured:
[1] = system: Aspergillus niger; experiment: Aspergillus niger on PYM plates with EGTA in the inoculum (Example 13); format: cell-based; conditions: for Reduction in colony area / Colony area: 48 hours; for 48 hour count / 72 hour count: total for three plates
Description: A 4-millimolar solution of ethylene glycol tetraacetic acid (EGTA) was prepared by dissolving 15.2 milligrams of EGTA in 10 milliliters of Butterfield's buffer. Serial two-fold dilutions were prepared to provide solutions containing 2 millimolar and 1 millimolar EGTA, respectively. “EGTA”, as used in the Examples, refers to ethylene glycol-bis(2-aminoethylether)-N,N,N′,N′-tetraacetic acid (67-42-5) obtained from Sigma-Aldrich (St. Louis, Mo.). A suspension of Aspergillus niger was diluted and added to the solutions as described in Example 12 to provide final cell concentrations of approximately 5 cfu per ml. Three replicate devices were prepared by inoculating 1 milliliter of the mold suspensions to PYM plates according to the manufacturer's instructions. Images of the plates were obtained after 48 hours and 72 hours of incubation, respectively. […] The average colony size after 48 hours of incubation was determined by imaging the plates and analyzing the images as described above.

[2] = system: mold species shown in Table 7; conditions: for some species; EDTA concentrations higher than 1 wt % of the dry powder coatings
Description: The mold species shown in Table 7 were serially diluted, inoculated, incubated, imaged, and analyzed as described for the A. niger cultures.

[3] = system: Aspergillus niger (ATCC #16484); conditions: for Colony Size Reduction: 1 mM vs 0 mM EDTA
Description: Fat free skim milk was purchased from a local grocery store. 3.7 milligrams of disodium EDTA dihydrate was added to 10 milliliters of the fat-free skim milk to provide a final concentration of 1 millimolar EDTA. A suspension of Aspergillus niger (ATCC #16484) was diluted in Butterfields buffer to a concentration of approximately 500 colony forming units per milliliter. 100 microliters of the diluted suspension was added to the milk sample. After briefly vortexing, 1 milliliter of the milk sample containing the mold was used to inoculate PYM plates according to the manufacturer's instructions. The PYM plates were incubated at 30° C. for 48 hours, followed by imaging and colony size analysis as described above. A control sample (without milk) was also prepared in Butterfield's buffer.

[4] = system: C. glabrata; conditions: for Colony area (mean ± standard deviation): 91 hours
Description: (§1) Thin film culture devices were prepared as described above. Three yeast strains were serially diluted from a frozen stock to provide a final concentration of approximately 100 CFU per ml. The thin film culture devices were inoculated, incubated for 91 hours, imaged, and analyzed as described above.

[5] = system: R. mucilaginosa; conditions: for Colony area (mean ± standard deviation): 91 hours
Description: as §1

[6] = system: C. guillermondi; conditions: for Colony area (mean ± standard deviation): 91 hours
Description: as §1

[7] = system: Aspergillus niger
Description: A diluted suspension of Aspergillus niger was prepared as described in example 1. A 1 millimolar solution of EDTA was prepared by dissolving 3.7 milligrams of EDTA in 10 milliliters of Butterfield's buffer. The Aspergillus niger diluted suspension was added to the EDTA/Butterfield's to provide a cell concentration of approximately 5 cfu per milliliter. Five replicate devices were prepared by adding one milliliter of the inoculum to PYM plates according to the manufacturer's instructions. A set of control plates was prepared from a 5 cfu per ml solution of Aspergillus niger containing no EDTA.

[8] = EDTA at concentrations below 1%
[9] = EDTA concentrations higher than 1%

Compound: O=C(O)CN(CCOCCOCCN(CC(=O)O)CC(=O)O)CC(=O)O [EGTA, ethylene glycol-bis(2-aminoethylether)-N,N,N′,N′-tetraacetic acid]
- Reduction in colony area ([1]; 1 mM EGTA vs 0 mM control): −9%
- Colony area ([1]; 1 mM EGTA): 24107 pixels
- 48 hour count ([1]; 1 mM EGTA): 12
- 72 hour count ([1]; 1 mM EGTA): 12
- Reduction in colony area ([1]; 2 mM EGTA vs 0 mM control): −43%
- Colony area ([1]; 2 mM EGTA): 15177 pixels
- 48 hour count ([1]; 2 mM EGTA): 14
- 72 hour count ([1]; 2 mM EGTA): 14
- Reduction in colony area ([1]; 4 mM EGTA vs 0 mM control): −78%
- Colony area ([1]; 4 mM EGTA): 5772 pixels
- 48 hour count ([1]; 4 mM EGTA): 11
- 72 hour count ([1]; 4 mM EGTA): 11

Compound: disodium ethylenediamine tetraacetic acid dihydrate [EDTA]
- delay in the appearance of visible colonies [2]: a delay in the appearance of visible colonies was observed
- Colony Area (1 mM EDTA) ([3]; Buffer Control (Butterfield's buffer, without milk), 48 hours): 3276
- Colony Size Reduction ([3]; Buffer Control, 48 hours): −91%
- Colony Area (1 mM EDTA) ([3]; Skim Milk sample, 30° C. for 48 hours): 3789
- Colony Size Reduction ([3]; Skim Milk sample, 48 hours): −86%
- Colony area (mean ± standard deviation) ([4]; 0.5% EDTA): 487 ± 300 pixels
- Colony area (mean ± standard deviation) ([4]; 1% EDTA): 308 ± 201 pixels
- Colony area (mean ± standard deviation) ([4]; 2.3% EDTA): 0 ± 0 pixels
- Colony area (mean ± standard deviation) ([4]; 4.2% EDTA): 0 ± 0 pixels
- effect on colony size [4, 8]: not affected
- detection of colonies [4, 9]: not detected
- Colony area (mean ± standard deviation) ([5]; 0.5% EDTA): 251 ± 95 pixels
- Colony area (mean ± standard deviation) ([5]; 1% EDTA): 148 ± 76 pixels
- Colony area (mean ± standard deviation) ([5]; 2.3% EDTA): 0 ± 0 pixels
- Colony area (mean ± standard deviation) ([5]; 4.2% EDTA): 0 ± 0 pixels
- effect on colony size [5, 8]: not affected
- detection of colonies [5, 9]: not detected
- Colony area (mean ± standard deviation) ([6]; 0.5% EDTA): 490 ± 129 pixels
- Colony area (mean ± standard deviation) ([6]; 1% EDTA): 201 ± 119 pixels
- Colony area (mean ± standard deviation) ([6]; 2.3% EDTA): 381 ± 140 pixels
- Colony area (mean ± standard deviation) ([6]; 4.2% EDTA): 162 ± 92 pixels
- effect on colony size [6, 8]: not affected
- Colony area ([7]; 1 mM EDTA in inoculum, 48 hours): 1492 pixels
- CFUs (48 hr) ([7]; 1 mM EDTA in inoculum, 48 hr): 15
- CFUs (72 hr) ([7]; 1 mM EDTA in inoculum, 72 hr): 16
- average colony diameter smaller than the control plates ([7]; 1 mM EDTA, after 48 hours of incubation): approximately 20 fold
